Legend:
[1] = biological target: T1, dipeptidase (E.C.3.4.13.11), pig renal enzyme (Sus scrofa, UniProt P22412); test: in vitro inhibition of hydrolysis of glycyldehydrophenylalanine (GDP) by solubilized renal dipeptidase; type: biochemical, pig (hog kidneys)
T1 construct: solubilized preparation of dipeptidase isolated from hog kidneys; from tissue; host or cells: hog kidney
T1 sequence (P22412 17-409): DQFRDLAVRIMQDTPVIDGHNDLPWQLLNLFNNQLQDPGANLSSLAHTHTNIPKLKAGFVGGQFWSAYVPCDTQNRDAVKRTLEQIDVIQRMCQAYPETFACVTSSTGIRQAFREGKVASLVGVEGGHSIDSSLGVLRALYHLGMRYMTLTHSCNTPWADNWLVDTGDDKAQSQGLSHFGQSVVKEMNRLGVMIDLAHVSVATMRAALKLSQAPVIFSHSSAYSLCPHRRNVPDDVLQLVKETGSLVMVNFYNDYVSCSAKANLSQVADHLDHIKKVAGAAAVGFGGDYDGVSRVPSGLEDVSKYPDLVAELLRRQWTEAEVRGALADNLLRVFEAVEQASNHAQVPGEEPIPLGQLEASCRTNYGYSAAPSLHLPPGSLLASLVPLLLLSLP
Procedure: This measured the ability of compounds to inhibit hydrolysis of glycyldehydrophenylalanine (GDP) by a solubilized preparation of dipeptidase isolated from hog kidneys. The procedure is as follows: to a 1 ml. system containing 50 mM "MOPS" (3-(N-morpholino)propanesulfonic acid) buffer, pH 7.1, is added 5 μg of lyophilized enzyme, and the test compound at a final concentration of 0.1 mM. After a five minute incubation at 37° C., GDP is added to a final concentration of 0.05 mM. Incubation is continued for 10 minutes, at 37° C. and hydrolysis of GDP is measured by the change in optical density with time at 275 nm. Inhibition of the enzyme is gauged by comparison to a standard run containing no inhibitor and is expressed as the inhibitor binding constant, Ki.
A 1 ml. system of 50 mM "MOPS" buffer, pH 7.1, is used. To this is added 5 μg of the pig renal enzyme and an amount of the test compound to bring its final concentration to 0.1 mM. After a five minute incubation at 37° C., an amount of GDP is added to bring its final concentration to 0.05 mM. The system is again incubated for 10 minutes, at 37° C. Hydrolysis of GDP is measured by its change in optical density with time at 275 nm. Inhibition of the enzyme is gauged by comparison to a standard run containing no inhibitor and is presented as percent inhibition.

renal dipeptidase = biological target: T2, renal dipeptidase (Sus scrofa, UniProt P22412); test: affinity and hydrolysis of substrates by renal dipeptidase; type: biochemical, pig (hog kidneys); details: compared with thienamycin
T2 construct: disulfide-linked homodimer
T2 sequence (P22412 17-384): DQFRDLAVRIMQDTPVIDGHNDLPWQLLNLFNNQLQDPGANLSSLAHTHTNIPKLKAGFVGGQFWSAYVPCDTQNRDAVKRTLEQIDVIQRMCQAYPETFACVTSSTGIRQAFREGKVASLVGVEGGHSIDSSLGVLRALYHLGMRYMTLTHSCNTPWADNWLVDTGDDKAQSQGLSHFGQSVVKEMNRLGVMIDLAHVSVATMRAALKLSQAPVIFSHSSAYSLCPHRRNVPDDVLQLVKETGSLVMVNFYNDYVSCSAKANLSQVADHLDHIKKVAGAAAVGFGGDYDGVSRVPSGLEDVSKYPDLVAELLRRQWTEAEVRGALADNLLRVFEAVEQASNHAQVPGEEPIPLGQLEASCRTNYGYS

## CC1(C)CC1C(=O)N/C(=C\CCCC(=O)O)C(=O)O (racemic) [Compound 64]
[1]; pH 7.1, 37° C., concentration giving 50% inhibition, calculated from multiple assays, GDP substrate
  Ki: 48 nM

## NCC(=O)NC(=Cc1ccccc1)C(=O)O [GDP, glycyldehydrophenylalanine]
Renal dipeptidase
  maximal velocity of hydrolysis by renal dipeptidase: much higher maximal velocity of hydrolysis

## CCCCC/C=C(\NC(=O)[C@H]1CC1(C)C)C(=O)O [dextrorotatory isomer, (+) Z-2-(2,2-dimethylcyclopropanecarboxamido)-2-octenoic acid]
[1]; resolved racemic octenoic acid, test not specified
  activity of resolved isomers: The activity resides in the dextrorotatory isomer
